Data on six compounds can be found in patent US20020168417A1, “Agrochemical compositions and surfactant compounds” (priority 1999, published 2002).

Like-named read-outs stand apart in the source and are kept apart here.

The conditions of data set [1]: in vivo.
Procedure: (§1) The irritancy of the products of some of the synthesis examples (if necessary after purification) was tested using standard testing protocols.
The conditions of data set [2]: in vivo. This is another data set of the same source.
Procedure: as §1
In the next data set the test system is Daphnia magna. Put plainly: aquatic toxicity to Daphnia magna, standard bio-assay. Type of data set: in vivo. The following applies: end of the 48 hour assay procedure. From the text: The results are given below:
Data set [3] is described as follows: irritancy, standard testing protocols: eye. The settings on record: in vivo.
Procedure: as §1
Data set [4] is described as follows: irritancy, standard testing protocols: skin. The following applies: in vivo.
Procedure: as §1
Data set [5] deals with fungal leaf rust (Puccinia recondite). Put plainly: AE5 field trial, tebuconazole fungicide with adjuvant on winter wheat leaf rust. In kind it is in vivo. The following applies: infected leaf area. Here is the method:
Field trials were carried out to test the effectiveness of fungicide on winter wheat (variety Versailles) using the active Horizon EW (tebuconazole) (250 g.I^−1) in the control of fungal leaf rust (Puccinia recondite). The plots were sprayed at a spray volume 300 I.ha^−1, with the adjuvants added as tank mix additives at a concentration of 0.1% weightivolume on the spray. The normal application rate (NAR) for Horizon alone is 1 I.ha^−1 (250 g.ha^−1) and this was used as a control together with 0.75 I.ha^−1 (187.5 g.ha^−1; […]). An untreated control was also included. For these trials, adjuvant containing formulations were at ¾ NAR for the active and 0.1% weight/volume (300 g.ha^−1) adjuvant The effect of the spraying was assessed 3 weeks after treatment and is expressed as % infected leaf area (2 and 3 top leaves).

[6] abbreviates: tebuconazole 187.5 g · ha^−1, adjuvant (where used) 300 g · ha^−1, 3 weeks after treatment.
Setting [7] is: tebuconazole 250 g · ha^−1, adjuvant (where used) 300 g · ha^−1, 3 weeks after treatment.

Take “1-(N,N-bis(N-1-deoxyglucitylamino)amonium)-2-hydroxy-3-dodecyloxy Propane Sulphate [SE25]”: in data set [1], the “Irritation assessment Eye” value was “moderate”. Further, the “Irritation assessment Skin” value in data set [2] is recorded as “slight”.
Take “1-(N-1-deoxyglucitylamino)2-hydroxyl-3-(branched octadecyloxy poly-10PO-10EO) propane [SE21]”: the “EC50 for immobilising the Daphnia” value in the data set on Daphnia magna stood at 31.4 mg.I^−1. In addition, the “Irritation assessment Eye” value in data set [1] is “practically none/slight”. For the same compound, the “Irritation assessment Skin” value in data set [2] was “slight/moderate”.
As for “Betaine from 1-(N-1-deoxyglucitylamino)-2-hydroxy-3-dodecyloxy Propane [SE23]”, the “Irritation assessment Eye” value in data set [3] is given as “moderate”. Moreover, the “Irritation assessment Skin” value in data set [4] was “slight”.
In the case of `CCCCCCCCCCCCCCOCC(O)CN(CC(O)C(O)C(O)C(O)CO)CC(O)C(O)C(O)C(O)CO` (centres unmarked) [SE20, 1-(N-bis-sorbitylamino)2-hydroxyl-3-tetradecyloxy propane], in the data set on Daphnia magna, the “EC50 for immobilising the Daphnia” value is listed as above 100 mg.I^−1.
Take `CCCCCCCCCCOCC(O)CN(C)C[C@H](O)[C@@H](O)[C@H](O)[C@H](O)CO` (some centres unmarked) [SE10, 1-(N-methyl-N-1-deoxyglucitylamino)2-hydroxy-3-decyloxy propane]: the “Irritation assessment Eye” value in data set [1] is reported as “moderate/severe”. The “Irritation assessment Skin” value in data set [2] is given as “practically none”.
For the compound `CC(C)(C)C(O)(CCc1ccc(Cl)cc1)Cn1cncn1` (racemic) [tebuconazole, (RS)1-p-chlorophenyl4,4-dimethyl-3-(1H-1,2,4triazole-1-ylmethyl)-pentan-3ol], the “% infected 2 leaf” value in data set [5] (setting [6]) and in data set [5] (setting [7]) was 2.5% each time. Also, the results for the “% infected 3 leaf” value in data set [5] (setting [6]) and in data set [5] (setting [7]) were 10% and 2.5%, respectively.
